# Measured values taken from paper PMC4992173, “Divergent synthesis and identification of the cellular targets of deoxyelephantopins” (Nature Communications, 2016).
# Columns and labels:
# Type in all cases: cell-based
# [1] = biological target: T1, Zinc finger protein 346 (ZNF346) (Homo sapiens, UniProt Q9UL40); test: In situ competitive profiling in live MCF7 cells (LFQ): ZNF346; conditions: 4 h, then 10 µM 24c, n=4
# T1 construct: 1,522 proteins were enriched from MCF7 cells by 10 μM probe 24c; endogenous in cells; host or cells: MCF7
# From the text: (§1) In our efforts to determine the direct molecular targets of deoxyelephantopin we first performed a gel-based competitive in situ proteomic profiling assay[41] […] While the greater conformational flexibility of probe 24c could potentially lead to more promiscuous target engagement relatively to deoxyelephantopin, it was favoured based on the fact that an alkyne moiety appended to the rigid scaffold of deoxyelephantopin may hinder some of its interactions. MCF7 cells were pretreated with various concentrations of deoxyelephantopin for 4 h, harvested, lysed and the lysates were treated with the fluorogenic probe 24c-Cy3 (10 μM; Supplementary Fig. 10). […] Furthermore, cells were pretreated with 20 μM concentration of deoxyelephantopin or 24c and the proteomic profiles were compared (Fig. 6b, Supplementary Fig. 11). Multiple bands were detected that were equally competed by both DEP and 24c, thus again confirming that 24c can be used as an acceptable clickable analogue of deoxyelephantopin in pulldown assays. Having established the optimal labelling conditions by SDS–PAGE, we next carried out a mass spectrometry-based competitive profiling assay[42] coupled with the method of stable isotope labelling of amino acids in culture (SILAC)[43]. […]
# (§2) Figure 6 Proteome-wide identification of deoxyelephantopin targets. […] Quantification was performed using label-free quantification (LFQ) method (n=4). […]
# [2] = biological target: T2, Glyoxylate reductase/hydroxypyruvate reductase (GRHPR) (Homo sapiens, UniProt Q9UBQ7); test: In situ competitive profiling in live MCF7 cells (LFQ): GRHPR; conditions: protein GRHPR, 4 h, then 10 µM 24c, n=4
# T2 construct: endogenous in cells; host or cells: MCF7
# From the text: as §1, §2
# [3] = biological target: T3, FLYWCH family member 2 (FLYWCH2) (Homo sapiens, UniProt Q96CP2); test: In situ competitive profiling in live MCF7 cells (LFQ): FLYWCH2; conditions: protein FLYWCH2, 4 h, then 10 µM 24c, n=4
# T3 construct: endogenous in cells; host or cells: MCF7
# From the text: as §1, §2
# T1 sequence (Q9UL40 whole entry): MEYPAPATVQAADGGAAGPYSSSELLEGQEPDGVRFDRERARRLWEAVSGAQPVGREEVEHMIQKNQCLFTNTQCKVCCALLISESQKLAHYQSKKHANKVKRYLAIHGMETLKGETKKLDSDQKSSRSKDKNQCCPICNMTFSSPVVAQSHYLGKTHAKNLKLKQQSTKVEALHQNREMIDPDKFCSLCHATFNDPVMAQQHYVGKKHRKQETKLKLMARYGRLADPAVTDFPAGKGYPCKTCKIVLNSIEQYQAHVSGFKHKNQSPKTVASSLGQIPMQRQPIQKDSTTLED
# T2 sequence (Q9UBQ7 whole entry): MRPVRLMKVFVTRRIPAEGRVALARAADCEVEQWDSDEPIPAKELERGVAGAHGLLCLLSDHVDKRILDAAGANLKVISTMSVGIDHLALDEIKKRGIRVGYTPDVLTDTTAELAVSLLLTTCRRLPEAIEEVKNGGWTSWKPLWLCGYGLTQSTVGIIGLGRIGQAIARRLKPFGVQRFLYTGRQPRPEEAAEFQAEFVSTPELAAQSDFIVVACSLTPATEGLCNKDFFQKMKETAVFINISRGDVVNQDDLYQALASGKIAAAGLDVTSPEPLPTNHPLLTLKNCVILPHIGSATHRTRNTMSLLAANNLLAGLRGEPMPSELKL
# T3 sequence (Q96CP2 whole entry): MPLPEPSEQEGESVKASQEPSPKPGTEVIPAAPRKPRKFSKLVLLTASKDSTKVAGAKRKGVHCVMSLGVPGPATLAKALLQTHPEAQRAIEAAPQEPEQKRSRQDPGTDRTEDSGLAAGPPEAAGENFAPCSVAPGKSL
smiles,measurement,setting,value
C=C(C)C(=O)O[C@H]1CC2=C[C@@H](C/C(C)=C/[C@H]3OC(=O)C(=C)[C@H]13)OC2=O [deoxyelephantopin],LFQ ratio 20 µM Deoxyelephantopin/DMSO with 24c,[1],0.00
same,LFQ ratio 20 µM Deoxyelephantopin/DMSO with 24c,[2],0.00
same,LFQ ratio 20 µM Deoxyelephantopin/DMSO with 24c,[3],0.19
